Experimental data: patent EP2108954A1, “A test system for detecting intracellular cyclic nucleotide level and methods and uses thereof” (Max-Planck-Gesellschaft zur Förderung der Wissenschaften …, priority 2008, dated 2009)

How the values were obtained:
hCNGA2 = test: Calcium imaging (fura-2) in HEK293 cells expressing hCNGA2 and Or22a; type: cell-based, human; conditions: most prominent near the plasma membrane (Fig. 5d)
Experimental: Free intracellular Ca^2+ concentration ([Ca^2+]i) was determined by fura-2 fluorescence as described (Messutat et al., Cell Calcium 30, 199-211. (2001)). In brief, cells were loaded with fura-2 by incubation in bath solution containing 2 µM fura-2/acetomethylester for 20 min. Free intracellular Ca^2+ concentration ([Ca^2+]i) was determined with the fluorescence ratio method. Excitation of fura-2 at 340 and 380 nm was performed with a monochromator (Polychrome II, T.I.L.L. Photonics, Gräfelfing, Germany) coupled via an epifluorescence condenser into an Axioskop FS microscope (Carl Zeiss, Jena, Germany) with a water immersion objective (LUMPFL 40xW/IR/0.8; Olympus, Hamburg, Germany). […] [Ca^2+]i was calculated according to the equation [Ca^(2 +)]i = Keff (R-Rmin)/(Rmax-R). […] Keff, Rmin, and Rmax were determined using HEK293 cells permeabilized with 2 µM ionomycin and three solutions with different concentrations of free Ca^2+ (Ca^2+ free; 5 mM Ca^2+; 500 nM Ca^2+; the composition of the 500 nM solution was calculated with WEBMAXC v.2.20) (Patton et al., Cell Calcium 35, 427-31 (2004)). […]
Fluorescence images were acquired using a cooled CCD camera controlled by TILLVision 4.0 software (T.I.L.L. Photonics). […] Image pairs were obtained by excitation for 100 ms at 340 nm and 380 nm; background fluorescence was subtracted.

Or22a and Or83b = molecular target: T1, Or22a and Or83b (Drosophila melanogaster, UniProt P81909+Q9VNB5); test: Whole-cell patch-clamp of currents in HEK293 cells coexpressing Or22a and Or83b; type: cell-based; conditions: 500 µM GDP-β-S in the pipette; n = 11
T1 construct: expressed in transfected cells; host or cells: HEK293
T1 sequence (P81909 1-397): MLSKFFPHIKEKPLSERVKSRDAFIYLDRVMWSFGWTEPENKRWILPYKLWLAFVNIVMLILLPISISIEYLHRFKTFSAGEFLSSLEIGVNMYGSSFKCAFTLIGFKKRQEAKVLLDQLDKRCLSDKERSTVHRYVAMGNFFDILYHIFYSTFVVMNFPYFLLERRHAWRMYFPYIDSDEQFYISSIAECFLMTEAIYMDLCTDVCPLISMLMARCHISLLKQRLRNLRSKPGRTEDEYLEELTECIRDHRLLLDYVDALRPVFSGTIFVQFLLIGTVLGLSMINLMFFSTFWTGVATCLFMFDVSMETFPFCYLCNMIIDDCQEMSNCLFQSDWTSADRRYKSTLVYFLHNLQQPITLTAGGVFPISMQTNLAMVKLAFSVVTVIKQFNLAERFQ
T1 sequence (Q9VNB5 1-486): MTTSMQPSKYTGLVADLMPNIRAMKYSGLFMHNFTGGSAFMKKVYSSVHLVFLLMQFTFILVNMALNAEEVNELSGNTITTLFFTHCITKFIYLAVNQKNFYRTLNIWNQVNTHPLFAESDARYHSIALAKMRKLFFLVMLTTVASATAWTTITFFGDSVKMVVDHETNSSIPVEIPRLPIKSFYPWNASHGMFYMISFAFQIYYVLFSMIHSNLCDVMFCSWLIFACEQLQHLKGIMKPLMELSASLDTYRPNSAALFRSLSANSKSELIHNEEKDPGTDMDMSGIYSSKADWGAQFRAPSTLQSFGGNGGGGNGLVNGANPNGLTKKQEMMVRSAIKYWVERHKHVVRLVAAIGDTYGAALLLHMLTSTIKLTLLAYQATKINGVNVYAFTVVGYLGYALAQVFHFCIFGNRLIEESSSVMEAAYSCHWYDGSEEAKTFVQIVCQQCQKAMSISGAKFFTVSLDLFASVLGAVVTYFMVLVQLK

CCCC(=O)OCC [Etb, ethyl butyrate]
[Ca^2+]i (hCNGA2): produced an increase in [Ca^2+]i | Hill coefficient of Etb-induced currents (Or22a and Or83b): 1.1
